Drawing on article PMC3195894 (FEBS letters, 2011), this text covers IC50 for 1 compound.

Each structure is given as a SMILES string.

The target in one assay is recombinant human RSK2 (Homo sapiens, UniProt P51812). The assay can be described thus: IMAP fluorescence polarization kinase inhibition assay, RSK2. It is filed as biochemical. The settings on record: read-out: IC50 RSK2; single assay; head-to-head testing, single batch of enzyme. On the technique in general: In fluorescence polarisation assays a small probe gives low polarisation when free and higher when bound to something large.
Chain of recombinant human RSK2 (P51812 whole entry): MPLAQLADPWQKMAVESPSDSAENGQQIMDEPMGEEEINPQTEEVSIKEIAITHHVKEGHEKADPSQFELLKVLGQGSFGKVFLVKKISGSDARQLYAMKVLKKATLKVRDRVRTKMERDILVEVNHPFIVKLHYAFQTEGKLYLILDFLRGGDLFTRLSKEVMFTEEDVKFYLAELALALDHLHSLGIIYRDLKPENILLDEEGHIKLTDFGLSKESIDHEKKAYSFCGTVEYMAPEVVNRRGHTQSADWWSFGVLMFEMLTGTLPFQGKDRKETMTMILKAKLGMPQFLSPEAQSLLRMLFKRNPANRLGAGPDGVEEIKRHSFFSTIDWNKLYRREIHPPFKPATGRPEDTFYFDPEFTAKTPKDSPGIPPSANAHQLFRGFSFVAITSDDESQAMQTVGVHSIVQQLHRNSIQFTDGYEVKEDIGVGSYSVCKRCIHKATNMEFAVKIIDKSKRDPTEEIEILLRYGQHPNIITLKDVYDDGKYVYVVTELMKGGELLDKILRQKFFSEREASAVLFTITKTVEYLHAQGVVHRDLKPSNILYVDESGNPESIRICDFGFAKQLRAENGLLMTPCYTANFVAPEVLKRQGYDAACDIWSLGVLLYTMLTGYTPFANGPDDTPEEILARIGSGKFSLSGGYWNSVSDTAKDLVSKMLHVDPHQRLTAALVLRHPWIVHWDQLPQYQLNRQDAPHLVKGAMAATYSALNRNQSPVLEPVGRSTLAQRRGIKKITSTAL

In the next assay the target is T1, recombinant human Chk1 (Homo sapiens, UniProt O14757).
T1 sequence (O14757 1-476): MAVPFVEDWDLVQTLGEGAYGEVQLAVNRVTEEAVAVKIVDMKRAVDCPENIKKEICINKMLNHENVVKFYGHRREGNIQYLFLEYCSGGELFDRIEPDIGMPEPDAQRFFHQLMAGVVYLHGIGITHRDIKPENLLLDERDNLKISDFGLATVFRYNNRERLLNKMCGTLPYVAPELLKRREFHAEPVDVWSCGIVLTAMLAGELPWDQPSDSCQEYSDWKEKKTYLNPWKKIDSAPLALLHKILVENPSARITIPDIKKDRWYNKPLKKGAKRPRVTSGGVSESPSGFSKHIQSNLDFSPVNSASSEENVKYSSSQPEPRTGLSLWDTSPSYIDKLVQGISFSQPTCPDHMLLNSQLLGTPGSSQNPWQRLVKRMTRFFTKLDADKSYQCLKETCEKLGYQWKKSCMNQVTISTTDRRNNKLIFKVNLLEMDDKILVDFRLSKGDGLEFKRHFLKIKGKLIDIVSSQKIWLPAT
The assay can be described thus: IMAP fluorescence polarization kinase inhibition assay, Chk1. It is filed as biochemical. The settings on record: read-out: IC50 Chk1; single assay; head-to-head testing, single batch of enzyme.

As a reminder, the IC50 is the point on the concentration scale where inhibition reaches its midpoint. Consider `CC(=NNC(=N)N)c1ccc(NC(=O)c2cc3cccc([N+](=O)[O-])c3[nH]2)cc1` [PV1019, 7-nitro-1H-indole-2-carboxylic acid {4-[1-(guanidinohydrazone)-ethyl]-phenyl}-amide], for which the IC50 came to 39 µM at recombinant human RSK2 and 8.1 µM on recombinant human Chk1.
